According to patent US11365183B2, “Eicosanoid derivatives” (MAX-DELBRUECK-CENTRUM FUER MOLEKULARE MEDIZIN, priority 2009, dated 2022):
Entries after “also recorded” stand apart in the source; their conditions may differ. Values belong to the molecule of their own block, whether it stands above or below them.

Columns and labels:
[1] = system: neonatal rat cardiomyocytes (NRCMs); assay: NRCM bioassay with pharmacological inhibitors (mechanism of cellular action); format: cell-based; settings: for inhibition of the negative chronotropic effects of EPA, 17,18-EETeTr and C13: 5 min preincubation, 11,12-EET 30 nM, C3, AH6089 10 μM, EPA 3.3 μM, 17,18-EETeTr 30 nM, C13 30 nM; for inhibition of the negative chronotropic effects of EPA, 17,18-EETeTr and C13 / blocking of the positive chronotropic effect of butaprost: calphostin C 100 nM, H89 1 μM; for blocking of the positive chronotropic effect of butaprost: butaprost 100 nM, AH6089 10 μM
Description: The bioassay with NRCMs was performed as described in examples 25 and 26. […] The cultured NRCMs were preincubated without or with one of the compounds indicated in FIG. 4 for 5 min before the effect of the following agonists was determined: EPA (3.3 μM), 17,18-EETeTr (30 nM) or C13 (30 nM). In some experiments, the NRCMs were stimulated with a selective EP2 prostanoid receptor agonist (butaprost from Sigma-Aldrich; used at a final concentration of 100 nM) to provide a control for the effect of certain inhibitors.

[2] = system: neonatal rat cardiomyocytes (NRCMs); assay: Chronotropic effect on spontaneous beating rate of cultured neonatal rat cardiomyocytes (identification of agonists); format: cell-based; settings: for chronotropic effect (Δ beats/min), mean±SE / agonistic / chronotropic effect on NRCMs, in words: 30 nM, incubation time 5 min; for chronotropic effect (Δ beats/min), mean±SE: NRCM clusters; for agonistic / chronotropic effect on NRCMs, in words: compound alone
From the text: This negative chronotropic effect reflects the capacity of the analogs to interact with and to activate a G-protein coupled receptor or other primary cellular targets that reduce the contractility of cardiomyocytes under basal and stress-induced conditions.
The compounds included EPA and 17,18-EETeTr (compounds 01 and 02; purchased from Cayman Chemical) as well as all but one (compound 16) of the analogs synthesized as described in examples 1-24. The R,S— and S,R-enantiomers of 17,18-EETeTr (compounds 03 and 04) were prepared resolving the racemic mixture (compound 02) by means of chiral-phase HPLC as described previously (Barbosa-Sicard E, Markovic M, Honeck H, Christ B, Muller D N, Schunck W H. Biochem Biophys Res Commun. 2005 Apr. 22; 329(4):1275-81). Before use, the compounds to be tested were prepared as 1000-fold stock solutions in ethanol.
Isolation and cultivation of NRCMs were performed as described previously (Wallukat, G; Wollenberger, A. Biomed Biochim Acta. 1987; 78:634-639; Wallukat G, Homuth V, Fischer T, Lindschau C, Horstkamp B, Jupner A, Baur E, Nissen E, Vetter K, Neichel D, Dudenhausen J W, Haller H, Luft F C. J Clin Invest. 1999; 103: 945-952). Briefly, neonatal Wistar rats (1-2 days old) were killed in conformity to the recommendations of the Community of Health Service of the City of Berlin and the cardiomyocytes were dissociated from the minced ventricles with a 0.2% solution of crude trypsin. The isolated cells were then cultured as monolayers on the bottom (12.5 cm^2) of Falcon flasks in 2.5 ml of Halle S M 20-I medium equilibrated with humidified air. The medium contained 10% heat-inactivated FCS and 2 μmol/l fluoro-deoxyuridine (Serva, Heidelberg, Germany), the latter to prevent proliferation of non-muscle cells. The NRCMs (2.4×10^6 cells/flask) were cultured at 37° C. in an incubator. After 5 to 7 days, the NRCMs formed spontaneously beating cell clusters. […] On the day of the experiment, the culture medium was replaced by 2.0 ml fresh serum-containing medium. Two hours later, the beating rates were monitored at 37° C. using an inverted microscope equipped with a heating stage. To determine the basal rate, 6 to 8 individual clusters were selected and the number of contractions was counted for 15 sec. After that, the compound to be tested was added to the culture and the beating rate of the same clusters was monitored 5 min later again. Based on the difference between the basal and compound-induced beating rate of the individual clusters, the chronotropic effects (Δ beats/min) were calculated and are given as mean±SE values. N refers to the number of clusters monitored which originated, in general, from at least three independent NRCM cultures.
This effect was fully expressed using an EPA concentration of 3.3 μM and an incubation time of 30 min. In contrast, 17,18-EETeTr (C02) produced the same effect almost immediately and already in the low nanomolar range (EC50 of 1-2 nM, data not shown). To compare the activity of 17,18-EETeTr with that of its synthetic analogs, all these compounds were tested at a final concentration of 30 nM and using an incubation time of 5 min.

[3] = system: neonatal rat cardiomyocytes (NRCMs); assay: Antagonism of the negative chronotropic effect of agonists in NRCMs (identification of antagonists); format: cell-based; settings: for inhibition of the agonistic effect of compound C4: 5 min preincubation, C4 and potential antagonist each 30 nM
Description: These antagonists were selected based on their capacity to abolish the negative chronotropic effects of EPA, 17,18-EETeTr and their synthetic agonists on the contractility of neonatal rat cardiomyocytes.
Potential antagonists included compounds C1, C3, C5, C6, C7, and C8, which were synthesized as described above in the corresponding examples.
The bioassay was performed with NRCMs as described in example 25. In the first series of experiments, compound C4 was used as the agonist and its effect was determined after preincubating the cultured NRCMc for 5 min with one of the potential antagonists. Both C4 and the potential antagonist were used at a final concentration of 30 nM.

[4] = system: rat model of myocardial infarction; assay: Anti-arrhythmic effect in rat model of myocardial infarction (LAD ligation); format: in vivo; settings: male Wistar rats
Description: Study design: To gain insight into the in-vivo effects of synthetic 17,18-EETeTr-agonists, myocardial infarction studies were performed in male Wistar rats. Briefly, rats weighing 220-250 g were randomized to receive an i.v. bolus of compound C17 (100 μg in 300 μl 0.9% NaCl) or only 300 μl 0.9% NaCl as vehicle control two hours before induction of myocardial infarction. For safe bolus application, animals were mildly anesthetized using isoflorane. Two hours after bolus application, animals were re-anesthetized with a mixture of ketamine and xylazine (i.v.). Continuous monitoring of the surface-ECG was started (EPTracer, Netherlands) and maintained until the end of the study. After recording of the basal ECG, myocardial infarction was induced by ligation of the left anterior descending artery (LAD). One hour after myocardial infarction animals were sacrificed and organ harvested. Samples from urine, blood, liver, kidney and heart were stored for further analysis.
Method of arrhythmia analysis: Ventricular tachycardia burden was calculated as the sum of all arrhythmic events originating from the ventricular myocardium, which were observed within the first hour after induction of myocardial infarction. In order to quantify not only the frequency but also the severity of the ventricular arrhythmias, an arrhythmia-severity-score was calculated. This score was calculated as the sum of the number of different arrhythmia events (PVC, couplet, triplet, VT<1.5 sec, VT>=1.5 sec), each class factorized by an increasing severity index of 1-5 (e.g. PVC×1, couplets×2, . . . , VT>=1.5 sec×5).

Molecule: CCCCC/C=C\CC1OC1C/C=C\C/C=C\CCCC(=O)O (centres unmarked) [11,12-EET, 11,12-epoxyeicosatrienoic acid]
- inhibition of the negative chronotropic effects of EPA, 17,18-EETeTr and C13 [1]: strongly inhibited

Molecule: CCC1OC1C/C=C/C/C=C/C/C=C/C/C=C/CCCC(=O)O (centres unmarked) [17,18-EETeTr, reference compound]
- chronotropic effect (Δ beats/min), mean±SE [2]: −22.5±0.8 beats/min
- EC50 ([2]; NRCMs, effect almost immediate, data not shown, read-out: EC50 of reduction of the beating rate): 1 to 2 nM
- agonistic / chronotropic effect on NRCMs, in words [2]: acted as agonist

Molecule: CC(C)Oc1ccc2c(=O)c3cc(C(=O)O)ccc3oc2c1 [AH6089]
- inhibition of the negative chronotropic effects of EPA, 17,18-EETeTr and C13 [1]: strongly inhibited
- blocking of the positive chronotropic effect of butaprost [1]: blocked

Molecule: CCC1OC1C/C=C\CCCCCCC/C=C\CCCC(=O)O (centres unmarked) [Compound C1, (5Z,14Z)-16-(3-Ethyloxirane-2-yl)hexadeca-5,14-dienoic acid]
- inhibition of the agonistic effect of compound C4 [3]: did not inhibit
- agonistic / chronotropic effect on NRCMs, in words [2]: inactive when tested alone

Molecule: CCC1OC1CCCC/C=C\CCCC/C=C\CCCC(=O)O (centres unmarked) [Compound C2, (5Z,11Z)-16-(3-Ethyloxirane-2-yl)hexadeca-5,11-dienoic acid]
- agonistic / chronotropic effect on NRCMs, in words [2]: Agonists

Molecule: CCC1OC1C/C=C\CCCC/C=C\CCCCCCC(=O)O (centres unmarked) [Compound C3, (8Z,14Z)-16-(3-Ethyloxirane-2-yl)hexadeca-8,14-dienoic Acid]
- inhibition of the negative chronotropic effects of EPA, 17,18-EETeTr and C13 [1]: strongly inhibited
- blocking of the positive chronotropic effect of butaprost [1]: not
- inhibition of the agonistic effect of compound C4 [3]: significantly inhibited
- effect on the negative chronotropic effect of EPA ([3]; antagonist 30 nM, EPA 3.3 μM): abolished
- antagonistic effect against C4, EPA, 17,18-EETeTr, C2 and C13 ([3]; antagonist 30 nM, EPA 3.3 μM, other agonists 30 nM each): highly potent antagonist
- effect on the negative chronotropic effect of C13 ([3]; both analogs in equimolar concentrations (30 nM)): almost completely blocked
- agonistic / chronotropic effect on NRCMs, in words [2]: did not exert any significant effect

Molecule: CCC1OC1CCCC/C=C\CCCCCCCCCC(=O)O (centres unmarked) [Compound C4, 16-[(Z)-3-Ethyloxiranyl]hexadec-11(Z)-enoic Acid]
- chronotropic effect (Δ beats/min), mean±SE [2]: −18.3±1.5 beats/min
- agonistic / chronotropic effect on NRCMs, in words [2]: Agonists; also recorded: agonistic effects

Molecule: CCC1OC1C/C=C\CCCCCCCCCCCCC(=O)O (centres unmarked) [Compound C5, 16-[(Z)-3-Ethyloxiranyl]hexadec-14(Z)-enoic Acid]
- inhibition of the agonistic effect of compound C4 [3]: significantly inhibited
- agonistic / chronotropic effect on NRCMs, in words [2]: no effect; also recorded: did not exert any significant effect

Molecule: CCC1OC1CCCCCCC/C=C\CCCCCCC(=O)O (centres unmarked) [Compound C6, 16-[(Z)-3-Ethyloxiranyl]hexadec-8(Z)-enoic Acid]
- inhibition of the agonistic effect of compound C4 [3]: did not inhibit
- agonistic / chronotropic effect on NRCMs, in words [2]: inactive when tested alone

Molecule: CCC1OC1CCCCCCCCCC/C=C\CCCC(=O)O (centres unmarked) [Compound C7, 16-[(Z)-3-Ethyloxiranyl]hexadec-5(Z)-enoic Acid]
- inhibition of the agonistic effect of compound C4 [3]: did not inhibit
- agonistic / chronotropic effect on NRCMs, in words [2]: inactive when tested alone

- melting point: 62.1 to 62.5 °C
Molecule: CCC1OC1CCCCCCCCCCCCCCCC(=O)O (centres unmarked) [Compound C8, 16-[(Z)-3-Ethyloxiranyl]hexadecanoic Acid]
- inhibition of the agonistic effect of compound C4 [3]: did not inhibit
- agonistic / chronotropic effect on NRCMs, in words [2]: inactive when tested alone

- melting point: 99.2 to 99.6 °C
Molecule: CCCC(=O)NCCCC/C=C\CCCCCCCCCC(=O)O [Compound C12, 16-(Butyrylamino)hexadec-11(Z)-enoic acid]
- agonistic / chronotropic effect on NRCMs, in words [2]: largely inactive

Molecule: CNC(=O)C(=O)NCCCC/C=C\CCCCCCCCCC(=O)O [Compound C13, 16-(2-(methylamino)-2-oxoacetamido)hexadac-11(Z)-enoic acid]
- chronotropic effect (Δ beats/min), mean±SE [2]: −33.7±1.3 beats/min
- agonistic / chronotropic effect on NRCMs, in words [2]: Agonists

Molecule: CCNC(=O)NCCCC/C=C\CCCCCCCCCC(=O)NCC(=O)[O-].[Na+] [Compound C17, Sodium (Z)-2-(16-(3-Ethylureido)hexadec-11-enamido)acetate]
- side effects of bolus injection ([4]; i.v. bolus 100 μg): did not induce any obvious negative side effects
- ventricular tachycardia burden ([4]; i.v. bolus 100 μg two hours before LAD ligation, first hour after infarction, n=5): 7526.2±5664.3 ms/h
- arrhythmia severity score ([4]; i.v. bolus 100 μg two hours before LAD ligation, n=5): 125±25 arbitrary units
- agonistic / chronotropic effect on NRCMs, in words [2]: Agonists

Molecule: CCNC(=O)NCCCC/C=C\CCCCCCCCCC(=O)OCCOCCOCCO [Compound C18, 2-(2-(2-Hydroxyethoxy)ethoxy)ethyl 16-(3-ethylureido)hexadec-11 (Z)-enoate]
- agonistic / chronotropic effect on NRCMs, in words [2]: Agonists

- melting point: 72.7 to 73.1 °C
Molecule: CCCC(=O)NC/C=C\CCCCCCCCCCCCC(=O)O [Compound C22, 16-Butyramidohexadec-14(Z)-enoic acid]
- agonistic / chronotropic effect on NRCMs, in words [2]: positive chronotropic effect

- melting point: 78.2 to 78.8 °C
Molecule: CCCCNC(=O)CCC/C=C\CCCCCCCCCC(=O)O [Compound C24, 16-(Butylamino)-16-oxohexadec-11 (Z)-enoic acid]
- agonistic / chronotropic effect on NRCMs, in words [2]: Agonists; also recorded: maintain

Molecule: O=S(=O)(NCCNC/C=C/c1ccc(Br)cc1)c1cccc2cnccc12 [Compound H89]
- inhibition of the negative chronotropic effects of EPA, 17,18-EETeTr and C13 [1]: not affected
- blocking of the positive chronotropic effect of butaprost [1]: blocked

Molecule: CC/C=C\C/C=C\C/C=C\C/C=C\C/C=C\CCCC(=O)O [EPA, eicosapentaenoic acid, reference compound]
- concentration resulting in a progressive reduction of the beating rate ([2]; NRCM cultures): above 1 μM
- concentration at which the reduction of the beating rate was fully expressed ([2]; incubation time of 30 min): 3.3 µM

Molecule: CCCC1([C@H](O)C/C=C/[C@H]2[C@H](O)CC(=O)[C@@H]2CCCCCCC(=O)OC)CCC1 [butaprost]
- chronotropic effect on NRCMs ([1]; 100 nM): positive chronotropic effect

Molecule: calphostin C
- inhibition of the negative chronotropic effects of EPA, 17,18-EETeTr and C13 [1]: strongly inhibited
- blocking of the positive chronotropic effect of butaprost [1]: not
